Laboratory results taken from patent publication US5786377A, “Pyrrolo[3,2-E]indol derivatives, process for the preparation thereof and applications” (Universidad de Santiago de Compostela, priority 1993, dated 1998).
Converted amounts (≈) assume the structure as drawn.

How the values were obtained:
[1] = tested on: P388; settings: cited from earlier work
[2] = tested on: MEL-28; assay: in vitro test, MEL-28; assay type: cell-based; settings: Homo sapiens, SK-MEL-28
Source text: (§1) On the other hand, the results of the tests in vitro carried out on compounds (IIIa) and (IIIb) were the following: […]

[3] = tested on: P-388; assay: in vitro test, P-388; assay type: cell-based; settings: Mus musculus, P388
Source text: as §1

[4] = tested on: HT-29; assay: in vitro test, HT-29; assay type: cell-based; settings: Homo sapiens
Source text: as §1

[5] = tested on: A-549; assay: in vitro test, A-549; assay type: cell-based; settings: Homo sapiens, A549
Source text: as §1

[6] = cited from earlier work
[7] = compared with CC-1065; cited from earlier work
[8] = tested on: P388 leukemic tumor; assay: P388 antitumoral model in vivo, survival of leukemic mice (%C/T); set-up: species or system mouse
Method: Description of the P388 Antitumoral Model
Normally, 1×10^6 cells in ascitic fluid was implanted. i.p. in CD2 F1 mice. Treatment with the agent tested i.p. began one day after the tumor had been implanted and it is continued daily up to a total of 5 injections for synthetic products and of 9 injections for raw natural products. The results are expressed as percentage of the control survival time.
CDFl mice weighing 18-22 gr (+/-3 gr) were implanted on day 0 of the test period 0.1 ml. of a dilution of 1.0×10^7 tumor cells coming from DBA/2N mice used for the propagation of the tumor.
On day 1 of the test period the animals were grouped at randam in groups of six animals. Each group is weighed and the average weight is written down. Each compound to be tested in duluted in 4 lvels of dosis for each multidose test as of the determiantion of the highest non-toxic dose (v.g. 400 mg/kg; 100 mg/kg; 10 mg/kg.)
Administration of the test compounds is started on day 1 using volumns of 1/2 drug injected i.p. Injections are given on days 1 to 9 of the test period, unless it is indicated to the contrary. The animals are weighed on day 5, which is the one which in this system is considered the day of toxicity. Toxicity in this test system is defined as: […]
A. 34% deaths up to day 5--acute toxicity
B. C/T <85% --chronic toxicity
C. A negative average of the weight change of the animals >4 g up to day 5--chronic toxicity
The data obtained upon testing the compounds in vivo in comparison with the P388 leukemic tumor model in mice are shown in the following table:
Where %C/T means average survival of the tested group/average survival of […]

[9] = tested on: cancer; assay: anticarcinogenic activity in vivo and toxicity, general statement on the biological activity studies; settings: in words; for toxicity: in vivo
Source text: This makes them especially ideal for used as agents for the therapeutic treatment of cancer in its diverse manifestations and, especially, in cases of leukemia.

[10] = in words; cited from earlier work

## O=C(Nc1ccc2[nH]c(C(=O)N3CC4CC45C3=CC(=O)c3ccccc35)cc2c1)c1cc2ccccc2[nH]1 (stereo not drawn) [CBI-Ind2]
[1]
  results in the P388 model in vivo: very good results in the P388 model in vivo

## COC(=O)c1cn(C)c2c(OC(=O)c3ccc([N+](=O)[O-])cc3)cc3c(c12)C(CCl)CN3C(=O)c1cc2cc(NC(=O)c3cc4ccccc4o3)ccc2[nH]1 (stereo not drawn) [IIIb]
[2]
  IC50: 0.5 ng/mL (≈ 0.67 nM)
[3]
  IC50: 0.02 ng/mL (≈ 0.0268 nM)
[4]
  IC50: 0.5 ng/mL (≈ 0.67 nM)
[5]
  IC50: 0.1 ng/mL (≈ 0.134 nM)

## Cc1c[nH]c2c1C13CC1CN(C(=O)c1cc4cc(NC(=O)c5cc6ccccc6o5)ccc4[nH]1)C3=CC2=O (stereo not drawn) [Adocelesine]
[6]; mouse, in vivo
  delayed lethality: without provoking delayed lethality
[7]
  tumoral effectiveness versus the natural product: greatly exceeds the natural product in tumoral effectiveness

## COC(=O)c1cn(C)c2c(O)cc3c(c12)C(CCl)CN3C(=O)c1cc2cc(NC(=O)c3cc4ccccc4o3)ccc2[nH]1 (stereo not drawn) [Compound (III), methyl 6-{5-[(benzofuran-2-ylcarbonyl)-amino]1H-indol-2-carbonyl}-8-chloromethyl-4-hydroxy-3-methyl-3,6,7,8,tetrahydropyrrolo[3,2-e]indol-1-carboxylate]
[8]; 0.500 mg/kg i.p.
  %C/T (average survival of the tested group/average survival of the controls and untreated ones): > 391.3%
[9]
  toxicity: very low toxicity
  anticarcinogenic activity in vivo: high anticarcinogenic activity in vivo

## COC(=O)c1cn(C)c2c(O)cc3c(c12)C(CCl)CN3C(=O)c1cc2cc(OC)c(OC)c(OC)c2[nH]1 (stereo not drawn) [Compound (V), methyl 6-(5,6,7-trimethoxy-1H-indol-2-carbonyl)-8-chloromethyl-4-hydroxy-3-methyl-3,6,7,8-tetra-hydropyrrololo[3,2-e]indol-1-carboxylate]
[8]; 0.050 mg/kg i.p.
  %C/T (average survival of the tested group/average survival of the controls and untreated ones): 133.9%
  %C/T activity class (significance mark): ** (Significant activity (strong): C/T > = 175%)
[9]
  toxicity: very low toxicity
  anticarcinogenic activity in vivo: high anticarcinogenic activity in vivo

## COC(=O)c1cn(C)c2c1C13CC1CN(C(=O)c1cc4cc(NC(=O)c5cc6ccccc6o5)ccc4[nH]1)C3=CC2=O (stereo not drawn) [(IV), methyl 2-[5-[(benzofuran-2-ylcarbonyl)amino]-1H-indol-2-carbonyl]-5-methyl-4-oxo,1,2,4,5,8,8,a-hexahydrocyclopropa[c]pyrrolo[3,2-e]indol-7-carboxylate]
[8]; 0.300 mg/kg i.p.
  %C/T (average survival of the tested group/average survival of the controls and untreated ones): 251.1%
  %C/T activity class (significance mark): ** (Significant activity (strong): C/T > = 175%)
[9]
  toxicity: very low toxicity
  anticarcinogenic activity in vivo: high anticarcinogenic activity in vivo

## COc1c(O)c2c(c3cc(C(=O)N4CCc5c4c(O)c(OC)c4[nH]c(C(=O)N6CC7CC78C6=CC(=O)c6[nH]cc(C)c68)cc54)[nH]c13)CCN2C(N)=O (stereo not drawn) [CC-1065]
[10]
  cytotoxic strength: extremely strong cytoxine
[6]; mice, therapeutic doses
  toxicity (delayed deaths): high toxicity, producing delayed deaths in mice at therapeutic doses

## COC(=O)c1cn(C)c2c1C13CC1CN(C(=O)c1cc4cc(OC)c(OC)c(OC)c4[nH]1)C3=CC2=O (stereo not drawn) [(VI), methyl 2-(5,6,7-trimethoxy-1H-indolz2-carbonyl)-5-methyl-4-oxo-1,2,4,5,8a-hexahydrocyclopropa[c]pyrrolo[3,2-e]indol-7-carboxylate]
[8]; 0.500 mg/kg i.p.
  %C/T (average survival of the tested group/average survival of the controls and untreated ones): 210.9%
  %C/T activity class (significance mark): ** (Significant activity (strong): C/T > = 175%)
[9]
  toxicity: very low toxicity
  anticarcinogenic activity in vivo: high anticarcinogenic activity in vivo
